Laboratory results reported in US12221453B2, “Substituted pyrazolo[5′,1′:2,3]pyrimido[5,4-b][1,4]oxazines as TYK2 inhibitors” (TAKEDA PHARMACEUTICAL COMPANY LIMITED, priority 2018, dated 2025).

What follows are compounds tested on IL-12 induced STAT4 phosphorylation mediated by TYK2/JAK2 (assay: IL-12 induced pSTAT4 in human PBMC). Conditions: 1 hr compound, 1.7 ng/mL IL-12 for 30 minutes.
Type: cell-based
Method in brief: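 Thawed human PBMC were pre-incubated with compound for 1 hr at 37 °C (0.1% DMSO), then stimulated with 1.7 ng/mL IL-12 for 30 minutes. Phospho-STAT4 and total STAT4 were measured in cell lysates by MSD.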

| Compound | IC50 [µM] |
| --- | --- |
| CNc1cc(-c2cn([C@H]3CO[C@@H](COC)C3)c3ncccc23)nc2c(C(=O)N[C@H]3CC[C@@H]3OC)cnn12 [I-1018, N-((1S,2S)-2-methoxycyclobutyl)-5-(1-(5-(methoxymethyl)tetrahydrofuran-3-yl)-1H-pyrrolo[2,3-b]pyridin-3-yl)-7-(methylamino)pyrazolo[1,5-a]pyrimidine-3-carboxamide] | < 0.1 |
| CNc1cc(-c2cnc3n([C@@H]4COC[C@H]4OC)cccc2-3)nc2c(C(=O)N[C@@H]3CC[C@H]3OC)cnn12 [Compound I-884] | < 0.1 |
| CNc1cc(-c2cn([C@H]3C[C@@H](COC)C3)c3ncccc23)nc2c(C(=O)NC3CC[C@H]3O)cnn12 (stereo partly drawn) [Compound I-912] | < 0.1 |
| CNc1cc(-c2cnc3n([C@H]4CCOC[C@@H]4O)cccc2-3)nc2c(C(=O)N[C@@H]3C[C@@H]3F)cnn12 [Compound I-825] | < 0.1 |
| CNc1cc(Nc2cccn([C@H]3C[C@@H](OC)C3)c2=O)nc2c(C(=O)N[C@H]3CCC3(F)F)cnn12 [Compound I-296] | < 0.1 |
| CNc1cc(-c2cn(CC(=O)N3CCCC3)c3ncccc23)nc2c(C(=O)N[C@H]3CC[C@@H]3OC)cnn12 [Compound I-965] | < 0.1 |
| CNc1cc(Nc2cccn(-c3ccccn3)c2=O)nc2c(C(=O)NC3CCC3(F)F)cnn12 (stereo not drawn) [Compound I-318] | < 0.1 |
| CNc1cc(-c2cn([C@@H]3COC[C@H]3OC)c3ncccc23)nc2c(C(=O)NC3CC[C@H]3F)cnn12 (stereo partly drawn) [Compound I-531] | < 0.1 |
| CNc1cc(Nc2cccn([C@@H]3CCC[C@](C)(OC)C3)c2=O)nc2c(C(=O)NC3CC3)cnn12 [Compound I-124] | < 0.1 |
| CNc1cc(-c2cn(C(C)C)c3nnccc23)nc2c(C(=O)N[C@@H]3CC[C@H]3OC)cnn12 [Compound I-1009] | < 0.1 |
| CNc1cc(-c2cn([C@H]3COC[C@@H]3OC)c3ncccc23)nc2c(C(=O)N[C@H]3CC[C@@H]3OC)cnn12 [Compound I-634] | < 0.1 |
| CNc1cc(-c2cn([C@H]3CN(C)C[C@@H]3F)c3ncccc23)nc2c(C(=O)N[C@H]3CC[C@@H]3OC)cnn12 [Compound I-640] | < 0.1 |
| O=C(NC1CCC1(F)F)c1cnn2c3c(c(Nc4cccn([C@H]5[C@@H]6COC[C@@H]65)c4=O)nc12)OCCN3 (stereo partly drawn) [Compound I-768] | < 0.1 |
| CNc1cc(-c2cn([C@H]3CCC4(C3)OCCO4)c3ncccc23)nc2c(C(=O)N[C@H]3CC[C@@H]3OC)cnn12 [Compound I-808] | < 0.1 |
| CNc1cc(Nc2cccn([C@H]3C[C@H](OC)C3)c2=O)nc2c(C(=O)NC3CCC3(F)F)cnn12 (stereo partly drawn) [Compound I-292] | < 0.1 |
| CNc1cc(Nc2cccn(-c3ccc(C)nc3)c2=O)nc2c(C(=O)N[C@H]3CCC3(F)F)cnn12 [Compound I-325] | < 0.1 |
| CNc1cc(Nc2cccn([C@H]3[C@@H]4COC[C@@H]43)c2=O)nc2c(C(=O)N[C@@H]3CC[C@H]3OC)cnn12 [Compound I-262] | < 0.1 |
| CNc1cc(Nc2cccn(C3CCOCC3)c2=O)nc2c(C(=O)N[C@@H]3CC[C@H]3F)cnn12 [Compound I-190] | < 0.1 |
| CNc1cc(-c2cn([C@@H]3COC[C@@H]3F)c3ncccc23)nc2c(C(=O)N[C@H]3CC[C@H]3O)cnn12 [Compound I-571] | < 0.1 |
| CNc1cc(-c2cn(C3COC3)c3ncccc23)nc2c(C(=O)NC3CC[C@@H]3F)cnn12 (stereo partly drawn) [Compound I-507] | < 0.1 |
| CNc1cc(-c2cn(CC(=O)N(C)C)c3ncccc23)nc2c(C(=O)N[C@H]3CC[C@@H]3OC)cnn12 [Compound I-921] | < 0.1 |

| Compound | IC50 [µM] |
| --- | --- |
| CC(C)n1cc(-c2nc3c(C(=O)N[C@H]4CC[C@H]4O)cnn3c3c2OCCN3)c2cccnc21 [Compound I-754] | < 0.1 |
| CNc1cc(-c2cn([C@H]3COC[C@@H]3OC)c3ncccc23)nc2c(C(=O)N[C@H]3CC[C@@H]3F)cnn12 [Compound I-523] | < 0.1 |
| CNc1cc(Nc2cccn([C@H]3[C@@H]4COC[C@@H]43)c2=O)nc2c(C(=O)NC3CCC3(F)F)cnn12 (stereo partly drawn) [Compound I-306] | < 0.1 |
| CNc1cc(-c2cn([C@@H]3CCN(C)C3)c3ncccc23)nc2c(C(=O)NC3CCC3(F)F)cnn12 (stereo partly drawn) [Compound I-686] | < 0.1 |
| CNc1cc(Nc2cccn([C@H]3C[C@@H](OC)C3)c2=O)nc2c(C(=O)N[C@H]3CC[C@@H]3OC)cnn12 [Compound I-253] | < 0.1 |
| CNc1cc(Nc2cccn([C@H]3CCCOC3)c2=O)nc2c(C(=O)N[C@H]3CC[C@@H]3F)cnn12 [Compound I-198] | < 0.1 |
| CNc1cc(-c2cn([C@H]3COC[C@@H]3OC)c3ccccc23)nc2c(C(=O)N[C@H]3CC[C@H]3O)cnn12 [Compound I-790] | < 0.1 |
| CNc1cc(Nc2cccn(C3CCOCC3)c2=O)nc2c(C(=O)N[C@@H]3CC[C@@H]3F)cnn12 [Compound I-193] | < 0.1 |
| CNc1cc(Nc2cccn([C@@H]3C[C@H]3OC)c2=O)nc2c(C(=O)N[C@H]3CC[C@@H]3F)cnn12 [Compound I-155] | < 0.1 |
| CNc1cc(Nc2cccn([C@H]3C[C@H](F)C3)c2=O)nc2c(C(=O)N[C@H]3CC[C@@H]3F)cnn12 [Compound I-165] | < 0.1 |
| CNc1cc(Nc2cccn([C@H]3C[C@H](F)C3)c2=O)nc2c(C(=O)NC3CC[C@@H]3F)cnn12 (stereo partly drawn) [Compound I-164] | < 0.1 |
| CNc1cc(-c2cn(C3CN(C)C3)c3ncccc23)nc2c(C(=O)N[C@H]3CC[C@@H]3F)cnn12 [Compound I-514] | < 0.1 |
| CNc1cc(-c2cn([C@H]3C[C@@H](O)C3)c3ncccc23)nc2c(C(=O)N[C@H]3CC[C@@H]3F)cnn12 [Compound I-511] | < 0.1 |
| CNc1cc(-c2cnc3n([C@@H]4COC[C@H]4O)cccc2-3)nc2c(C(=O)N[C@H]3CC[C@@H]3F)cnn12 [Compound I-830] | < 0.1 |
| CNc1cc(-c2cnc3n([C@H]4COC[C@@H]4OC)cccc2-3)nc2c(C(=O)N[C@@H]3CC[C@H]3OC)cnn12 [Compound I-881] | < 0.1 |
| CNc1cc(-c2cnc3n(CC(C)(C)O)cccc2-3)nc2c(C(=O)N[C@H]3CC[C@@H]3OC)cnn12 [Compound I-983] | < 0.1 |
| CNc1cc(Nc2cccn(C3COC3)c2=O)nc2c(C(=O)NC3CC[C@@H]3F)cnn12 (stereo partly drawn) [Compound I-163] | < 0.1 |
| CNc1cc(-c2cn([C@@H]3COC[C@H]3O)c3ncccc23)nc2c(C(=O)N[C@@H]3CC[C@H]3OC)cnn12 [Compound I-629] | < 0.1 |
| CNc1cc(Nc2cccn(-c3ocnc3C)c2=O)nc2c(C(=O)NC3CCC3)cnn12 [Compound I-144] | < 0.1 |
| CNc1cc(-c2cn([C@H]3COC[C@@H]3OC)c3ccccc23)nc2c(C(=O)NC3CC[C@@H]3OC)cnn12 (stereo partly drawn) [Compound I-741] | < 0.1 |
| CNc1cc(Nc2cccn(C3CCOCC3)c2=O)nc2c(C(=O)N[C@H]3CC[C@H]3F)cnn12 [Compound I-192] | < 0.1 |

Each compound was assayed against JAK2 (Invitrogen) kinase (Homo sapiens (Human), UniProt O60674) (assay: JAK2 radioactive kinase assay). Conditions: compound at 10 μM; ATP at 10 μM; substrate poly[Glu:Tyr] (4:1).
Sequence of JAK2 (Invitrogen) kinase (O60674 whole entry): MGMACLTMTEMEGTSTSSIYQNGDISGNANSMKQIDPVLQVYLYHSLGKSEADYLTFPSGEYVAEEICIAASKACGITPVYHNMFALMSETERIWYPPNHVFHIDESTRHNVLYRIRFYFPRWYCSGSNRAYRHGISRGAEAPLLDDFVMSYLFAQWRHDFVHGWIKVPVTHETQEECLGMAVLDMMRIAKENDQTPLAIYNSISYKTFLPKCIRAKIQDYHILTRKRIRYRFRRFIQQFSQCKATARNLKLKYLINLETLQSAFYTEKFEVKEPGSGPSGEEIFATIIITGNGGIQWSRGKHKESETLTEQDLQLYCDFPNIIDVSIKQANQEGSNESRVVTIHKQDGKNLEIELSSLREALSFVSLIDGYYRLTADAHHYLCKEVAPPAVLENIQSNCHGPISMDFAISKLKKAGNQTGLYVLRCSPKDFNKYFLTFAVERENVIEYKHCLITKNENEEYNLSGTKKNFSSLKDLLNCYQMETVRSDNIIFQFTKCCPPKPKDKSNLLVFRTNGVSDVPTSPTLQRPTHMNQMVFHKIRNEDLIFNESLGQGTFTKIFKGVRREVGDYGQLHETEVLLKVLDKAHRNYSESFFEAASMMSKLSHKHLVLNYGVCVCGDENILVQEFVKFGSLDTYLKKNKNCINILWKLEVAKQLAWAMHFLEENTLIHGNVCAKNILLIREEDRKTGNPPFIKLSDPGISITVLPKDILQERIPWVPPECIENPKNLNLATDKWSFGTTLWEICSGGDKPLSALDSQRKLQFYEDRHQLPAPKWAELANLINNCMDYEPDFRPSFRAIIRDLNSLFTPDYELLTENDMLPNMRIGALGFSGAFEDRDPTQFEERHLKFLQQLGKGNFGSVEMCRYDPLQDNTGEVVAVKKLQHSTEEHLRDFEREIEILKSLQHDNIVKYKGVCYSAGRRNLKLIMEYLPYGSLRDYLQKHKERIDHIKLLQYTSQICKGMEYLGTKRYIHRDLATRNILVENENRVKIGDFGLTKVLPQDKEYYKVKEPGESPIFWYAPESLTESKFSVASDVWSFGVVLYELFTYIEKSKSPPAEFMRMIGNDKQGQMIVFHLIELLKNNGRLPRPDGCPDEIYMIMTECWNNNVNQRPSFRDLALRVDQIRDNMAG
Type: biochemical
Method: Peptide substrate, [[…]], (20 μM) was prepared in reaction buffer (20 mM Hepes pH 7.5, 10 mM MgCl2, 1 mM EGTA, 0.02% Brij35, 0.02 mg/mL BSA, 0.1 mM […], 2 mM DTT, 1% DMSO. TYK2 (Invitrogen) kinase was added, followed by compounds in DMSO. 33PATP was added to initiate the reaction in ATP at 10 μM. Kinase reaction was incubated for 120 min at room temp and reactions were spotted onto P^81 ion exchange paper (Whatman #3698-915), and then washed extensively in 0.75% phosphoric acid, prior to reading the radioactivity counts. For JAK2 (Invitrogen) kinase assay the peptide substrate poly[Glu:Tyr] (4:1), 0.2 mg/mL was used, in the reaction carried out the same as for TYK2.

| Compound | JAK2 (% Inhibition at 10 μM) |
| --- | --- |
| CNc1cc(Nc2cccn([C@H]3CC[C@H](OC)CC3)c2=O)nc2c(C(=O)N[C@@H]3CC[C@@H](OC)C3)cnn12 [I-69, 5-((1-((1r,4R)-4-Methoxycyclohexyl)-2-oxo-1,2-dihydropyridin-3-yl)amino)-N-((1R,3R)-3-methoxycyclopentyl)-7-(methylamino)pyrazolo[1,5-a]pyrimidine-3-carboxamide] | A (had a percent inhibition at 10 μM lower than 50) |
| CNc1cc(Nc2cccn([C@H]3CC[C@H](OC)CC3)c2=O)nc2c(C(=O)N[C@H]3CC[C@H](OC)C3)cnn12 [I-70, 5-((1-((1r,4S)-4-Methoxycyclohexyl)-2-oxo-1,2-dihydropyridin-3-yl)amino)-N-((1S,3S)-3-methoxycyclopentyl)-7-(methylamino)pyrazolo[1,5-a]pyrimidine-3-carboxamide] | A (had a percent inhibition at 10 μM lower than 50) |

The compounds below were run against human TYK2 (JH2domain-pseudokinase) (Homo sapiens (Human), UniProt P29597) (assay: TYK2 JH2 domain binding assay (KINOMEscan, DiscoveRx)). Conditions: 11-point 3-fold dilution, top concentration 30,000 nM, duplicate; read-out: hTYK2_JH2_Binding (Kd; nM).
Sequence of human TYK2 (JH2domain-pseudokinase) (P29597 556-888): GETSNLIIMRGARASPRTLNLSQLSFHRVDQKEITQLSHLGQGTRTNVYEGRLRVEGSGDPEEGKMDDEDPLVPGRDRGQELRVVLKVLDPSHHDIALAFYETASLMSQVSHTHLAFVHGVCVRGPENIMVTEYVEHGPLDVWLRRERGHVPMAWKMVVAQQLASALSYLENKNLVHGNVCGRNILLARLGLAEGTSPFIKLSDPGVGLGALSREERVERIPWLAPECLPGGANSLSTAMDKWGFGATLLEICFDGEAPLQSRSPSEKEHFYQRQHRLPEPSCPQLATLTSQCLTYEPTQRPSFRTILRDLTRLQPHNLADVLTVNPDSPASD
Method: From these HEK 293 cells, extracts were prepared in M-PER extraction buffer (Pierce) in the presence of Protease Inhibitor Cocktail Complete (Roche) and Phosphatase Inhibitor Cocktail Set II (Merck) per manufacturers' instructions. The TYK2 (JH2domain-pseudokinase) fusion protein was labeled with a chimeric double-stranded DNA tag containing the NFkB binding site (5′-[…]-3′) fused to an amplicon for qPCR readout, which was added directly to the expression extract (the final concentration of DNA-tag in the binding reaction is 0.1 nM).
The liganded beads were blocked with excess biotin and washed with blocking buffer (SeaBlock (Pierce), 1% BSA, 0.05% Tween 20, 1 mM DTT) to remove unbound ligand and to reduce nonspecific binding.
Extracts were loaded with DNA-tag and diluted into the binding reaction in a two step process. First extracts were diluted 1:100 in 1× binding buffer (PBS/0.05% Tween 20/10 mM DTT/0.1% BSA/2 μg/ml sonicated salmon sperm DNA) containing 10 nM DNA-tag. […] Kds were determined using an 11-point 3-fold compound dilution series with three DMSO control points. […]
Kds were determined using an 11-point 3-fold compound dilution series with three DMSO control points. […] The Kds were determined using a compound top concentration of 30,000 nM. […]
Binding constants (Kds) were calculated with a standard dose-response curve using the Hill equation: […]

| Compound | Kd [nM] |
| --- | --- |
| CNc1cc(-c2cn([C@H]3CO[C@@H](COC)C3)c3ncccc23)nc2c(C(=O)N[C@H]3CC[C@@H]3OC)cnn12 [I-1018, N-((1S,2S)-2-methoxycyclobutyl)-5-(1-(5-(methoxymethyl)tetrahydrofuran-3-yl)-1H-pyrrolo[2,3-b]pyridin-3-yl)-7-(methylamino)pyrazolo[1,5-a]pyrimidine-3-carboxamide] | < 0.2 |
